Measurements from patent US20260217767A1, “NOVEL A4B7 THIOETHER PEPTIDE DIMER ANTAGONISTS” (Protagonist Therapeutics, Inc., priority 2014, published 2026).
*1 amine or outer side, *2 acyl side, *3 side chain or, on linkers, in order; H or OH if unused. Where a SMILES comes first, the peptide text is derived from it. Bridges are numbered along the chain shown (N, C = ends). Roman numbers before positions name the chains, in order. [ ]: non-standard residue; d: D form. 1Nal = N[C@@H](Cc1cccc2ccccc12)C(=O)O; Diglycolyl = O=C(COCC(=O)[*:2])[*:1]; NMeR = CN[C@@H](CCCNC(=N)N)C(=O)O; Tic = O=C(O)[C@@H]1Cc2ccccc2CN1; X1 = O=C(c1ccccc1C[*:2])[*:1]; Pen = CC(C)(S)[C@H](N)C(=O)O; hCys = N[C@@H](CCS)C(=O)O

What follows are compounds tested against T1, RPMI 8866 cells (Homo sapiens, UniProt P13612+P26010) (assay: α4β7-MAdCAM Cell Adhesion Assay). Settings: thioether monomer peptides, Table 6; read-out: Cell-Adhesion A4B7.
T1 sequence (P13612 34-1032): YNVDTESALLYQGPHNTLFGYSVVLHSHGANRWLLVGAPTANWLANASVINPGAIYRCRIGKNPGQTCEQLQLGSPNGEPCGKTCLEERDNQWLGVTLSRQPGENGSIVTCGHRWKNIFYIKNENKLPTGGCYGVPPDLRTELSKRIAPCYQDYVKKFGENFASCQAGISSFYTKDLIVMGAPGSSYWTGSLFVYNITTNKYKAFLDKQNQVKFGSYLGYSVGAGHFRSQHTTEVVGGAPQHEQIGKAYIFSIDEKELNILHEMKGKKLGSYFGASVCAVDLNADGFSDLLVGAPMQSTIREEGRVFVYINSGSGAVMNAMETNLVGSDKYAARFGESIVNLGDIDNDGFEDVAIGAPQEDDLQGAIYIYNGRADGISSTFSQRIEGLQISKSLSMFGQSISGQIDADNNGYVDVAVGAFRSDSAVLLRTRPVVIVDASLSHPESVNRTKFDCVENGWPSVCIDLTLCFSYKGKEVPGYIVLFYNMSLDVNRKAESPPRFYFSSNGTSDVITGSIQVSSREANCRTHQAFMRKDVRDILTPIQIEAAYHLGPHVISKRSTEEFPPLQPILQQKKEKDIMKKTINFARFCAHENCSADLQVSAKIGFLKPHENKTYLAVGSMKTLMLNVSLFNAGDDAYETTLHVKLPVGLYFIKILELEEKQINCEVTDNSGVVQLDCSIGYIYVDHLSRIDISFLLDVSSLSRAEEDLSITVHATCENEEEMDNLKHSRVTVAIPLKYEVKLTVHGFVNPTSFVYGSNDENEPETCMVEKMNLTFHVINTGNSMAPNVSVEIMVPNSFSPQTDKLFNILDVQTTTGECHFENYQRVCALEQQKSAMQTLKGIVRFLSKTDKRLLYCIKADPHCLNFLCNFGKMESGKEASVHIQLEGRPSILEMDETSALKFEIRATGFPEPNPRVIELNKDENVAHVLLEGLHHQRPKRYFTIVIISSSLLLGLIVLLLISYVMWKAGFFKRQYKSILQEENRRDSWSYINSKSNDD
T1 sequence (P26010 20-798): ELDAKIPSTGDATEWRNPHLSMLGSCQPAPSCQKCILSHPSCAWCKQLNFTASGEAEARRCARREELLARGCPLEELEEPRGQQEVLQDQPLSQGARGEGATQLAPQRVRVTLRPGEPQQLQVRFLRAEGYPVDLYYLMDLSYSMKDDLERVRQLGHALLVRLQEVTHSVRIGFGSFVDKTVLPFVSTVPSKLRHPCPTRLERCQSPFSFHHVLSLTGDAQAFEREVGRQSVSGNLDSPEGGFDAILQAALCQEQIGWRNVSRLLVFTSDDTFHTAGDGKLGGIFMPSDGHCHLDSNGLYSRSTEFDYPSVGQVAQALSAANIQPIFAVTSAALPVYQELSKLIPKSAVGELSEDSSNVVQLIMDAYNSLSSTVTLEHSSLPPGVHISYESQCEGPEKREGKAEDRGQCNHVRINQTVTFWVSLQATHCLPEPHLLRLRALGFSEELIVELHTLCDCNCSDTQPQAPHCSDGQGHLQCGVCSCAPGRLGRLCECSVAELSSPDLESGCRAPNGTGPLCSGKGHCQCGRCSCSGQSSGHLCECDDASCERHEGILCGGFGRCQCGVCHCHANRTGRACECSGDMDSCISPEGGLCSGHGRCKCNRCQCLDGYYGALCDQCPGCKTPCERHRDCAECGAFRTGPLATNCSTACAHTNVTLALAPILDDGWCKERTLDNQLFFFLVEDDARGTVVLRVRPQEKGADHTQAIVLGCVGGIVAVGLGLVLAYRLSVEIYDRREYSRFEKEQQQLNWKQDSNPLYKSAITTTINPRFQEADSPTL
Type: cell-based
Procedure, shortened: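 RPMI 8866 cells (200,000/well) in DMEM with 1 mM MnCl2 and 0.1% BSA were allowed to adhere 30-45 min at 37° C to plates coated with rh MAdCAM-1/Fc (200 ng/well) in presence of serially diluted peptide. After washing, bound cells quantified by MTT, absorbance 570 nm, cell-free background subtracted.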

SMILES	IC50
CC(C)C[C@@H]1NC(=O)[C@H]([C@@H](C)O)NC(=O)[C@H](CC(=O)O)NC(=O)[C@H](CO)NC(=O)[C@H](CCCNC(=N)N)N(C)C(=O)c2ccccc2CSC(C)(C)[C@@H](C(=O)N[C@@H](Cc2ccc3ccccc3c2)C(=O)N[C@H](CCC(=O)O)C(N)=O)NC1=O [compound 114] (HELM PEPTIDE1{[meR].S.D.T.L.[Pen].[O=C([C@H](Cc1ccc2ccccc2c1)N[*:1])[*:2]].[dE].[am]}|CHEM1{[O=C(c1ccccc1C[*:2])[*:1]]}$PEPTIDE1,CHEM1,1:R1-1:R1|PEPTIDE1,CHEM1,6:R3-1:R2$$$V2.0)	25 to 100 nM
CC(=O)NCCCC[C@@H](NC(=O)[C@H](CCC(=O)O)NC(=O)[C@H](Cc1cccc2ccccc12)NC(=O)[C@H]1NC(=O)[C@H](CC(C)C)NC(=O)[C@H]([C@@H](C)O)NC(=O)[C@H](CC(=O)O)NC(=O)[C@H](CO)NC(=O)[C@H](CCCNC(=N)N)N(C)C(=O)c2ccccc2CSC1(C)C)C(N)=O [compound 89] (HELM PEPTIDE1{[meR].S.D.T.L.[Pen].[O=C([C@H](Cc1cccc2ccccc12)N[*:1])[*:2]].E.[dK].[am]}|PEPTIDE2{[ac]}|CHEM1{[O=C(c1ccccc1C[*:2])[*:1]]}$PEPTIDE1,PEPTIDE2,9:R3-1:R2|PEPTIDE1,CHEM1,1:R1-1:R1|PEPTIDE1,CHEM1,6:R3-1:R2$$$V2.0)	100 to 1000 nM
CC(C)C[C@@H]1NC(=O)[C@H]([C@@H](C)O)NC(=O)[C@H](CC(=O)O)NC(=O)[C@H](CO)NC(=O)[C@H](CCCNC(=N)N)N(C)C(=O)c2ccccc2CSC(C)(C)[C@@H](C(=O)N[C@@H](Cc2c[nH]c3ccccc23)C(=O)N[C@H](CCC(=O)O)C(=O)N[C@@H](Cc2ccccc2)C(N)=O)NC1=O [compound 101] (HELM PEPTIDE1{[meR].S.D.T.L.[Pen].W.[dE].F.[am]}|CHEM1{[O=C(c1ccccc1C[*:2])[*:1]]}$PEPTIDE1,CHEM1,1:R1-1:R1|PEPTIDE1,CHEM1,6:R3-1:R2$$$V2.0)	100 to 1000 nM
CC(C)C[C@@H]1NC(=O)[C@H]([C@@H](C)O)NC(=O)[C@H](CC(=O)O)NC(=O)[C@H](CO)NC(=O)[C@H](CCCNC(=N)N)N(C)C(=O)c2ccccc2CSC(C)(C)[C@@H](C(=O)N[C@@H](Cc2c[nH]c3ccccc23)C(=O)N[C@H](CCC(=O)O)C(=O)N[C@H](Cc2ccccc2)C(N)=O)NC1=O [compound 107] (HELM PEPTIDE1{[meR].S.D.T.L.[Pen].W.[dE].[dF].[am]}|CHEM1{[O=C(c1ccccc1C[*:2])[*:1]]}$PEPTIDE1,CHEM1,1:R1-1:R1|PEPTIDE1,CHEM1,6:R3-1:R2$$$V2.0)	25 to 100 nM
CC(C)C[C@@H]1NC(=O)[C@H]([C@@H](C)O)NC(=O)[C@H](CC(=O)O)NC(=O)[C@H](CO)NC(=O)[C@H](CCCNC(=N)N)N(C)C(=O)c2ccccc2CSC(C)(C)[C@@H](C(=O)N[C@@H](Cc2cccc3ccccc23)C(=O)N[C@H](CCC(=O)O)C(=O)N(C)[C@@H](CCCCN)C(N)=O)NC1=O [compound 69] (HELM PEPTIDE1{[meR].S.D.T.L.[Pen].[O=C([C@H](Cc1cccc2ccccc12)N[*:1])[*:2]].[dE].[meK].[am]}|CHEM1{[O=C(c1ccccc1C[*:2])[*:1]]}$PEPTIDE1,CHEM1,1:R1-1:R1|PEPTIDE1,CHEM1,6:R3-1:R2$$$V2.0)	100 to 1000 nM
CC(=O)NCCCC[C@@H](NC(=O)[C@@H](CCC(=O)O)NC(=O)[C@H](Cc1ccc(O)cc1)NC(=O)[C@H]1NC(=O)[C@H](CC(C)C)NC(=O)[C@H]([C@@H](C)O)NC(=O)[C@H](CC(=O)O)NC(=O)[C@H](CO)NC(=O)[C@H](CCCNC(=N)N)N(C)C(=O)c2ccccc2CSC1(C)C)C(N)=O [compound 91] (HELM PEPTIDE1{[meR].S.D.T.L.[Pen].Y.[dE].[dK].[am]}|PEPTIDE2{[ac]}|CHEM1{[O=C(c1ccccc1C[*:2])[*:1]]}$PEPTIDE1,PEPTIDE2,9:R3-1:R2|PEPTIDE1,CHEM1,1:R1-1:R1|PEPTIDE1,CHEM1,6:R3-1:R2$$$V2.0)	100 to 1000 nM

Same assay, conditions: thioether peptide dimers, Table 7; read-out: Cell-Adhesion A4B7

SMILES	IC50
CC(C)C[C@@H]1NC(=O)[C@H]([C@@H](C)O)NC(=O)[C@H](CC(=O)O)NC(=O)[C@H](CO)NC(=O)[C@H](CCCNC(=N)N)N(C)C(=O)c2ccccc2CSC(C)(C)[C@@H](C(=O)N[C@@H](Cc2c[nH]c3ccccc23)C(=O)N[C@H](CCC(=O)O)C(=O)N[C@H](CCCCNC(=O)COCC(=O)NCCCC[C@@H](NC(=O)[C@@H](CCC(=O)O)NC(=O)[C@H](Cc2c[nH]c3ccccc23)NC(=O)[C@H]2NC(=O)[C@H](CC(C)C)NC(=O)[C@H]([C@@H](C)O)NC(=O)[C@H](CC(=O)O)NC(=O)[C@H](CO)NC(=O)[C@H](CCCNC(=N)N)N(C)C(=O)c3ccccc3CSC2(C)C)C(=O)O)C(=O)O)NC1=O [compound 209] (I: [NMeR]SDTL[Pen]W[dE][dK]-OH / II: [NMeR]SDTL[Pen]W[dE][dK]-OH; linker I:9-II:9 via Diglycolyl; linker I:N-I:6, II:N-II:6 via X1)	< 25 nM
CC(C)C[C@@H]1NC(=O)[C@H]([C@@H](C)O)NC(=O)[C@H](CC(=O)O)NC(=O)[C@H](CO)NC(=O)[C@H](CCCNC(=N)N)N(C)C(=O)c2ccccc2CSC(C)(C)[C@@H](C(=O)N[C@@H](Cc2cccc3ccccc23)C(=O)N[C@@H](CCC(=O)O)C(=O)N[C@H](CCCCNC(=O)COCC(=O)NCCCC[C@@H](NC(=O)[C@H](CCC(=O)O)NC(=O)[C@H](Cc2cccc3ccccc23)NC(=O)[C@H]2NC(=O)[C@H](CC(C)C)NC(=O)[C@H]([C@@H](C)O)NC(=O)[C@H](CC(=O)O)NC(=O)[C@H](CO)NC(=O)[C@H](CCCNC(=N)N)N(C)C(=O)c3ccccc3CSC2(C)C)C(N)=O)C(N)=O)NC1=O [compound 167] (I: [NMeR]SDTL[Pen][1Nal]E[dK]-NH2 / II: [NMeR]SDTL[Pen][1Nal]E[dK]-NH2; linker I:9-II:9 via Diglycolyl; linker I:N-I:6, II:N-II:6 via X1)	< 25 nM
CC(C)C[C@@H]1NC(=O)[C@H]([C@@H](C)O)NC(=O)[C@H](CC(=O)O)NC(=O)[C@H](CO)NC(=O)[C@H](CCCNC(=N)N)N(C)C(=O)c2ccccc2CSCC[C@@H](C(=O)N[C@@H](Cc2c[nH]c3ccccc23)C(=O)N[C@@H](CCC(=O)O)C(=O)N[C@H](CCCCNC(=O)COCC(=O)NCCCC[C@@H](NC(=O)[C@H](CCC(=O)O)NC(=O)[C@H](Cc2c[nH]c3ccccc23)NC(=O)[C@@H]2CCSCc3ccccc3C(=O)N(C)[C@@H](CCCNC(=N)N)C(=O)N[C@@H](CO)C(=O)N[C@@H](CC(=O)O)C(=O)N[C@@H]([C@@H](C)O)C(=O)N[C@@H](CC(C)C)C(=O)N2)C(N)=O)C(N)=O)NC1=O [compound 157] (I: [NMeR]SDTL[hCys]WE[dK]-NH2 / II: [NMeR]SDTL[hCys]WE[dK]-NH2; linker I:9-II:9 via Diglycolyl; linker I:N-I:6, II:N-II:6 via X1)	25 to 100 nM
CC(C)C[C@@H]1NC(=O)[C@H]([C@@H](C)O)NC(=O)[C@H](CC(=O)O)NC(=O)[C@H](CO)NC(=O)[C@H](CCCNC(=N)N)N(C)C(=O)c2ccccc2CSC[C@@H](C(=O)N2Cc3ccccc3C[C@H]2C(=O)N[C@H](CCC(=O)O)C(=O)N[C@H](CCCCNC(=O)COCC(=O)NCCCC[C@@H](NC(=O)[C@@H](CCC(=O)O)NC(=O)[C@@H]2Cc3ccccc3CN2C(=O)[C@@H]2CSCc3ccccc3C(=O)N(C)[C@@H](CCCNC(=N)N)C(=O)N[C@@H](CO)C(=O)N[C@@H](CC(=O)O)C(=O)N[C@@H]([C@@H](C)O)C(=O)N[C@@H](CC(C)C)C(=O)N2)C(N)=O)C(N)=O)NC1=O [compound 184] (I: [NMeR]SDTLC[Tic][dE][dK]-NH2 / II: [NMeR]SDTLC[Tic][dE][dK]-NH2; linker I:9-II:9 via Diglycolyl; linker I:N-I:6, II:N-II:6 via X1)	< 25 nM
